Assay: Study 202: fasting metabolic laboratory parameters
Assay type: in vivo
Conditions: for Fasting HDL, mean change from baseline / Fasting LDL, mean change from baseline / Fasting total cholesterol, mean change from baseline / Fasting total cholesterol/HDL ratio, mean change from baseline / Fasting triglycerides, mean change from baseline / HOMA-IR, mean change from baseline / HbA1c, mean change from baseline: EFV
Excerpt: All abnormalities in total cholesterol, LDL cholesterol, triglycerides, or glucose were Grade 1 or Grade 2.
Mean baseline values and changes from baseline in HbA1c, HOMA-IR, fasting LDL, fasting HDL, fasting total cholesterol, fasting total cholesterol/HDL ratio, and fasting triglycerides are shown in Table 36.

[1] = All CVC (N = 115), EFV (N = 28), through Week 48

Q: Which “Any graded (Grade 1-4) fasting laboratory abnormality, n subjects” value [1] does the source give for O=C1Nc2ccc(Cl)cc2[C@@](C#CC2CC2)(C(F)(F)F)O1 [EFV, efavirenz, reference compound] here?
A: Its value is 9.

Q: And the “Fasting LDL cholesterol abnormality, any grade, n subjects” value [1]?
A: Its value is 6.

Q: What about the “Fasting LDL cholesterol, worst Grade 1, n subjects” value [1] of the same compound?
A: Its value is 3.

Q: And the “Fasting LDL cholesterol, worst Grade 2, n subjects” value [1]?
A: The value was 3.

Q: And the “Fasting LDL cholesterol, worst Grade 3, n subjects” value [1]?
A: The value was 0.

Q: What about the “Fasting LDL cholesterol, worst Grade 4, n subjects” value [1] of the same compound?
A: Its value is 0.

Q: What about the “Fasting glucose (serum, high) abnormality, any grade, n subjects” value [1] of the same compound?
A: Its value is 2.

Q: What about the “Fasting glucose (serum, high), worst Grade 1, n subjects” value [1] of the same compound?
A: Its value is 2.

Q: What about the “Fasting glucose (serum, high), worst Grade 2, n subjects” value [1] of the same compound?
A: Its value is 0.

Q: What about the “Fasting glucose (serum, high), worst Grade 3, n subjects” value [1] of the same compound?
A: Its value is 0.

Q: And the “Fasting glucose (serum, high), worst Grade 4, n subjects” value [1]?
A: Its value is 0.

Q: And the “Fasting laboratory abnormality, worst Grade 1, n subjects” value [1]?
A: The value was 6.

Q: What about the “Fasting laboratory abnormality, worst Grade 2, n subjects” value [1] of the same compound?
A: The value was 3.

Q: What about the “Fasting laboratory abnormality, worst Grade 3, n subjects” value [1] of the same compound?
A: Its value is 0.

Q: What about the “Fasting laboratory abnormality, worst Grade 4, n subjects” value [1] of the same compound?
A: Its value is 0.

Q: What about the “Fasting total cholesterol abnormality, any grade, n subjects” value [1] of the same compound?
A: Its value is 9.

Q: And the “Fasting total cholesterol, worst Grade 1, n subjects” value [1]?
A: Its value is 6.

Q: And the “Fasting total cholesterol, worst Grade 2, n subjects” value [1]?
A: Its value is 3.

Q: What about the “Fasting total cholesterol, worst Grade 3, n subjects” value [1] of the same compound?
A: The value was 0.

Q: What about the “Fasting total cholesterol, worst Grade 4, n subjects” value [1] of the same compound?
A: Its value is 0.

Q: And the “Fasting triglycerides abnormality, any grade, n subjects” value [1]?
A: The value was 0.

Q: What about the “Fasting triglycerides, worst Grade 1, n subjects” value [1] of the same compound?
A: Its value is 0.

Q: And the “Fasting triglycerides, worst Grade 2, n subjects” value [1]?
A: Its value is 0.

Q: What about the “Fasting triglycerides, worst Grade 3, n subjects” value [1] of the same compound?
A: The value was 0.

Q: What about the “Fasting triglycerides, worst Grade 4, n subjects” value [1] of the same compound?
A: The value was 0.

Q: And the “Fasting HDL, mean change from baseline” value (Week 4, All CVC)?
A: The value was 5.90 mg/dL.

Q: What about the “Fasting LDL, mean change from baseline” value (Week 4, All CVC) of the same compound?
A: Its value is 8.62 mg/dL.

Q: What about the “Fasting total cholesterol, mean change from baseline” value (Week 4, All CVC) of the same compound?
A: Its value is 19 mg/dL.

Q: And the “Fasting total cholesterol/HDL ratio, mean change from baseline” value (Week 4, All CVC)?
A: Its value is −0.07.

Q: And the “Fasting triglycerides, mean change from baseline” value (Week 4, All CVC)?
A: The value was 23 mg/dL.

Q: What about the “HOMA-IR, mean change from baseline” value (Week 4, All CVC) of the same compound?
A: The value was 0.30.

Q: What about the “HbA1c, mean change from baseline” value (Week 4, All CVC) of the same compound?
A: Its value is −0.01 % Hb.

Q: What about the “Fasting HDL, mean change from baseline” value (Week 12, All CVC) of the same compound?
A: Its value is 9.45 mg/dL.

Q: And the “Fasting LDL, mean change from baseline” value (Week 12, All CVC)?
A: The value was 7.59 mg/dL.

Q: What about the “Fasting total cholesterol, mean change from baseline” value (Week 12, All CVC) of the same compound?
A: Its value is 18 mg/dL.

Q: And the “Fasting total cholesterol/HDL ratio, mean change from baseline” value (Week 12, All CVC)?
A: The value was −0.41.

Q: What about the “Fasting triglycerides, mean change from baseline” value (Week 12, All CVC) of the same compound?
A: The value was 3 mg/dL.

Q: And the “HOMA-IR, mean change from baseline” value (Week 12, All CVC)?
A: The value was 0.06.

Q: What about the “HbA1c, mean change from baseline” value (Week 12, All CVC) of the same compound?
A: Its value is −0.07 % Hb.

Q: What about the “Fasting HDL, mean change from baseline” value (Week 24, All CVC) of the same compound?
A: Its value is 12.75 mg/dL.

Q: And the “Fasting LDL, mean change from baseline” value (Week 24, All CVC)?
A: The value was 13.40 mg/dL.

Q: And the “Fasting total cholesterol, mean change from baseline” value (Week 24, All CVC)?
A: The value was 24 mg/dL.

Q: What about the “Fasting total cholesterol/HDL ratio, mean change from baseline” value (Week 24, All CVC) of the same compound?
A: The value was −0.47.

Q: What about the “Fasting triglycerides, mean change from baseline” value (Week 24, All CVC) of the same compound?
A: The value was -10 mg/dL.

Q: What about the “HOMA-IR, mean change from baseline” value (Week 24, All CVC) of the same compound?
A: Its value is −1.27.

Q: What about the “HbA1c, mean change from baseline” value (Week 24, All CVC) of the same compound?
A: Its value is −0.01 % Hb.

Q: What about the “Fasting HDL, mean change from baseline” value (Week 48, All CVC) of the same compound?
A: Its value is 11.94 mg/dL.

Q: And the “Fasting LDL, mean change from baseline” value (Week 48, All CVC)?
A: The value was 11.19 mg/dL.

Q: And the “Fasting total cholesterol, mean change from baseline” value (Week 48, All CVC)?
A: Its value is 26 mg/dL.

Q: What about the “Fasting total cholesterol/HDL ratio, mean change from baseline” value (Week 48, All CVC) of the same compound?
A: The value was −0.35.

Q: And the “Fasting triglycerides, mean change from baseline” value (Week 48, All CVC)?
A: The value was 14 mg/dL.

Q: And the “HOMA-IR, mean change from baseline” value (Week 48, All CVC)?
A: Its value is −0.12.

Q: What about the “HbA1c, mean change from baseline” value (Week 48, All CVC) of the same compound?
A: Its value is −0.08 % Hb.

Q: And the “Change in fasting cholesterol (total, LDL, HDL) during treatment” value (through Week 48)?
A: Its value is “increases were observed”.

Reference: patent US20180110754A1, “CENICRIVIROC FOR THE TREATMENT OF FIBROSIS” (Tobira Therapeutics, Inc., priority 2015, published 2018)
